Test results taken from US20210121456A1, “USE OF METHYLNALTREXONE TO ATTENUATE TUMOR PROGRESSION” (Salix Pharmaceuticals, Inc., priority 2014, published 2021).

Tested on: patients with advanced cancers (and non-cancer advanced illness) and opioid-induced constipation
Test: Pooled post-hoc analysis of Study 1 and Study 2: deaths and overall survival
Type: in vivo, human
Method: Routine adverse event (AE) evaluations described in Example 3 were analyzed. AEs of tumor progression in specific cancers and survival analysis of the placebo and methylnaltrexone-treated cohorts in the clinical studies were tabulated. Both studies were randomized, placebo-controlled trials that involved a 2-week treatment period followed by a 2-week follow-up period. The enrolled subjects were advanced illness (incurable cancer or other end-stage disease) subjects with OIC who were receiving stable doses of laxatives and opioid analgesics. In the context of the study, a stable dose of opioid analgesics was defined as no reduction in the dose of opioid analgesic of ≥50% for at least three days before the first dose of MNTX. A stable dose of laxatives was defined as having a standing laxative order (and not PRN, or as-needed) for at least three days before the first dose of MNTX. A diagnosis of constipation was provided if the subject had (a) fewer than 3 bowel movements during the previous week by history and no clinically notable laxation in the 24 hours before the first dose of MNTX, or (b) no clinical notable laxation in the 48 hours before the first dose of MNTX. In Study 1 (Example 1), subjects received subcutaneous MNTX 0.15 mg/kg or placebo (PBO) every other day (QOD), and in Study 2 (Example 2) subjects received subcutaneous MNTX (8 mg or 12 mg based on body weight 38 to <62 kg or ≥62 kg, respectively) or placebo administered QOD. The 12 mg fixed dose was designed to correspond to the 0.15 mg/kg weight-based dose. Rescue-laxatives, enemas or manual disimpactions were not administered within 4 hours before or after each dose of MNTX. […] For statistical significance testing, the Fisher's exact test was used (p<0.05).
Subsequent to the initial pooled analysis in Example 3, the data from Study 1 and Study 2 was re-analyzed for overall survival (OS) in a post-hoc analysis. Overall survival (OS) was defined as the time interval from the treatment initiation to the date of death or the date of last follow up, whichever occurred first. […] In Study 2, 151 of the enrolled 229 patients were diagnosed with advanced cancers. […] FIG. 12 provides a schematic of the subjects with advanced cancers from the pooled studies that were analyzed in the subsequent analysis. Table 3 provides the patient characteristics from the subsequent pooled analysis of the two studies. Table 4 provides a distribution of the type of cancer diagnosed in the subjects analyzed for survival.
Table 7 lists the number of deaths and survivors in both the placebo and the methylnaltrexone-treated groups for subjects diagnosed with lung, breast, prostate, pancreatic and colon cancer. The groups are further categorized into methylnaltrexone responders and methylnaltrexone non-responders alone or in combination with the placebo group. The analysis included the results from the double-blind and open label phases of the studies. When the group of MNTX-treated subjects across both studies was examined, there was a significant difference in the percentage of subject deaths between the MNTX-responsive group and the MNTX non-responsive group, with the number of survivors in the MNTX-responsive group exceeding the number of survivors in the MNTX non-responsive group. […] For the analysis in Table 7, a subject with laxation within 0-4 hours after two of the first four doses of MNTX was considered a responder. The data in Table 6 may vary slightly from that in Table 4 based on how the subjects were coded as cancer patients during analysis of the data. […]
For the analysis carried out in this Example and in Example 3, a subject with laxation occurring from 0-4 hours after two of the first four doses of MNTX was considered a MNTX responder or responsive subject. Data for placebo patients who elected to participate in the open-label MNTX treatment phase was collected from the first 4 doses of open-label treatment. […]

[1] = Excluding crossover to MNTX (MNTX 117, placebo 61)
[2] = Patients on placebo (crossover to MNTX 51, placebo 61)
[3] = Table 6, Non-Responders (versus Responders < 4hr)
[4] = Table 6, Non-Responders (versus Responders < 8hr)
[5] = Table 6, Non-Responders (versus Responders < 12hr)
[6] = Table 6, Non-Responders (versus Responders < 24hr)
[7] = Table 7, MNTX All, Total of five cancers
[8] = Table 7, MNTX Non-Responders, Breast
[9] = Table 7, MNTX Non-Responders, Colon
[10] = Table 7, MNTX Non-Responders, Lung
[11] = Table 7, MNTX Non-Responders, Pancreas
[12] = Table 7, MNTX Non-Responders, Prostate
[13] = Table 7, MNTX Non-Responders, Total of five cancers
[14] = Table 7, MNTX Responders, Breast
[15] = Table 7, MNTX Responders, Colon
[16] = Table 7, MNTX Responders, Pancreas
[17] = Table 7, MNTX Responders, Prostate
[18] = Table 7, MNTX Responders, Total of five cancers

SMILES: C[N@+]1(CC2CC2)CC[C@]23c4c5ccc(O)c4O[C@H]2C(=O)CC[C@@]3(O)[C@H]1C5.[Br-] [MNTX, (R)—N-(cyclopropylmethyl) noroxymorphone methobromide]
- overall survival MNTX vs. placebo (134 patients with advanced illness other than cancer, p=0.88): no difference
- Hazard Ratio, Treatment: MNTX vs. placebo (overall survival, Cox regression) (All patients (MNTX 117, placebo 112)): 0.70
- Hazard Ratio, Response vs. no response [1]: 0.32
- Hazard Ratio, Treatment: MNTX vs. placebo [1]: 0.32
- Deaths (number) (MNTX All Patients, Cancer): 45
- Deaths (number) (MNTX All Patients, Non-Cancer): 11
- Deaths (%) (MNTX All Patients, Totals): (31.3%)
- Deaths (number) (MNTX All Patients, Totals): 56
- Deaths (number) (MNTX Non-Responders, Cancer): 23
- Deaths (number) (MNTX Non-Responders, Non-Cancer): 5
- Deaths (%) (MNTX Non-Responders, Totals): (39.4%)
- Deaths (number) (MNTX Non-Responders, Totals): 28
- Deaths (number) (MNTX Responders, Cancer): 22
- Deaths (number) (MNTX Responders, Non-Cancer): 6
- Deaths (%) (MNTX Responders, Totals): (25.9%)
- Deaths (number) (MNTX Responders, Totals): 28
- median overall survival (OS) (MNTX non-responsive group (45 subjects)): 58 days
- overall survival (OS) (MNTX-responsive group, analysis before the updated analysis (FIG. 9)): 121 days
- Hazard Ratio, Response vs. no response [2]: 0.64
- Hazard Ratio, Treatment: MNTX vs. placebo [2]: 0.15
- % Deaths [3]: 50.0%
- Deaths [3]: 22
- Survivors [3]: 22
- % Deaths [4]: 53.8%
- Deaths [4]: 21
- Survivors [4]: 18
- % Deaths [5]: 50.0%
- Deaths [5]: 18
- Survivors [5]: 18
- % Deaths [6]: 48.4%
- Deaths [6]: 15
- Survivors [6]: 16
- % Deaths (Table 6, Responders < 4hr): 31.5%
- Deaths (Table 6, Responders < 4hr): 23
- Survivors (Table 6, Responders < 4hr): 50
- % Deaths (Table 6, Responders < 8hr): 30.8%
- Deaths (Table 6, Responders < 8hr): 24
- Survivors (Table 6, Responders < 8hr): 54
- % Deaths (Table 6, Responders < 12hr): 33.3%
- Deaths (Table 6, Responders < 12hr): 27
- Survivors (Table 6, Responders < 12hr): 54
- % Deaths (Table 6, Responders < 24hr): 34.9%
- Deaths (Table 6, Responders < 24hr): 30
- Survivors (Table 6, Responders < 24hr): 56
- Deaths (Table 7, MNTX All, Breast): 3
- Deaths (%) (Table 7, MNTX All, Breast): 21.4%
- Survivors (Table 7, MNTX All, Breast): 11
- Deaths (Table 7, MNTX All, Colon): 1
- Deaths (%) (Table 7, MNTX All, Colon): 25.0%
- Survivors (Table 7, MNTX All, Colon): 3
- Deaths (Table 7, MNTX All, Lung): 14
- Deaths (%) (Table 7, MNTX All, Lung): 45.2%
- Survivors (Table 7, MNTX All, Lung): 17
- Deaths (Table 7, MNTX All, Pancreas): 3
- Deaths (%) (Table 7, MNTX All, Pancreas): 33.3%
- Survivors (Table 7, MNTX All, Pancreas): 6
- Deaths (Table 7, MNTX All, Prostate): 5
- Deaths (%) (Table 7, MNTX All, Prostate): 41.7%
- Survivors (Table 7, MNTX All, Prostate): 7
- Deaths [7]: 26
- Deaths (%) [7]: 37.7%
- Survivors [7]: 43
- Deaths [8]: 2
- Deaths (%) [8]: 50.0%
- Survivors [8]: 2
- Deaths [9]: 0
- Deaths (%) [9]: 0.0%
- Survivors [9]: 1
- Deaths [10]: 8
- Deaths (%) [10]: 47.1%
- Survivors [10]: 9
- Deaths [11]: 3
- Deaths (%) [11]: 75.0%
- Survivors [11]: 1
- Deaths [12]: 3
- Deaths (%) [12]: 60.0%
- Survivors [12]: 2
- Deaths [13]: 16
- Deaths (%) [13]: 51.6%
- Survivors [13]: 15
- Deaths (Table 7, MNTX Responders (laxation within 0-4 hours after two of the first four doses), Lung): 6
- Deaths [14]: 1
- Deaths (%) [14]: 10.0%
- Survivors [14]: 9
- Deaths [15]: 1
- Deaths (%) [15]: 33.3%
- Survivors [15]: 2
- Deaths (%) (Table 7, MNTX Responders, Lung): 42.9%
- Survivors (Table 7, MNTX Responders, Lung): 8
- Deaths [16]: 0
- Deaths (%) [16]: 0.0%
- Survivors [16]: 5
- Deaths [17]: 2
- Deaths (%) [17]: 28.6%
- Survivors [17]: 5
- Deaths [18]: 10
- Deaths (%) [18]: 26.3%
- Survivors [18]: 28
- median overall survival (OS) (cancer patients treated with MNTX (n=117)): 76 days
- median overall survival (OS) (cancer patients with response to MNTX (n=72)): 118 days
- median OS (lung cancer patients (n=15) with response to MNTX): 118 days
- median OS (lung cancer, 32 patients treated with MNTX): 118 days
- Deaths (pancreatic cancer, 4 patients with response to MNTX): no death
- median OS (pancreatic cancer, 8 patients treated with MNTX): 76 days
- survival extended after administration (pancreatic cancer, methylnaltrexone-responsive group, initial analysis (FIG. 12)): ~100 days
- median OS (placebo patients (n=23) with response to MNTX during open-label treatment): 74 days
- median overall survival (placebo patients (n=56) who crossed over to MNTX): 75 days
